# In patent publication US9428507B2, “Compounds for the treatment of malaria” (The Broad Institute, Inc., priority 2013, dated 2016):
# Test system: Dd2 strain of P. falciparum
# Assay: Activity against the Dd2 strain of P. falciparum (SYBR Green I, 72-h incubation)
# Format: cell-based
# Details: Plasmodium falciparum, DD2, 72 h, read-out: EC^50 Dd2
# Experimental: The Dd2 strain of P. falciparum was cultured in complete medium (RPMI with L-glutamine, 4.3% heat-inactivated O-positive human serum, 2.08 mg/ml albumax, 0.013 mg/ml hypoxanthine, 1.17 mg/ml glucose, 0.18% NaHCO3, 0.031 M Hepes, 2.60 mM NaOH, and 0.043 mg/ml gentamicin) until the parasitemia reached 3-8%. Parasitemia was determined by checking at least 500 red blood cells from a Giemsa-stained blood smear. The Dd2 cultures along with tested O-positive red blood cells are centrifuged at room temperature at 2,000 rpm for 5 min using an Eppendorf centrifuge 581 OR with an A-4-81 rotor. The medium was aspirated off. For the compound screening, a parasite dilution at a 1% parasitemia and 1.0% hematocrit was created with screening medium (RPMI with L-glutamine, 4.16 mg/ml albumax II, 0.013 mg/ml hypoxanthine, 1.73 mg/ml glucose, 0.18% NaHCO3, 0.031M Hepes, 2.60 mM NaOH, and 0.043 mg/ml gentamicin). The suspension was gassed with 93% nitrogen, 4% carbon dioxide, and 3% oxygen and placed at 37° C. until needed. Using a liquid dispenser, 20 μl of screening medium was dispensed into 384-well, black, clear-bottom plates. With a PinTool, 100 nl of compounds dissolved in DMSO was transferred into the assay plates along with control compound (mefloquine). Next, 30 μl of the parasite suspension in screening medium was then dispensed into the assay plates such that the final parasitemia was 1%, and the final hematocrit was 1.0%. Final concentration of DMSO was 0.125%. Mefloquine at a final concentration of 20 μM and DMSO at a final concentration of 0.125% were used within the assay plates to serve as background and baseline controls, respectively. The assay plates were transferred to incubators (93% nitrogen, 4% carbon dioxide, and 3% oxygen during the 72-h incubation at 37° C.). Ten microliters of detection reagent consisting of 1 OX SYBR Green I (Invitrogen; supplied in 10,000× concentration) in lysis buffer (20 mM Tris-HCl, 5 mM EDTA, 0.16% Saponin wt/vol, 1.6% Triton X vol/vol) was dispensed into the assay plates. For optimal staining, the assay plates were left at room temperature for 24 h in the dark. The assay plates were read by using an Envision (PerkinElmer) reader, with 505 dichroic mirrors with 485-nm excitation and 530-nm emission settings, and the plate reads were from the bottom.
row,SMILES,EC50 [nM]
1,COc1ccc2c3c([nH]c2c1)[C@H](CO)N(C(=O)C(C)C)CC31CCN(C(=O)Nc2ccccc2F)CC1 [Compound 9],2910
2,"COc1ccc2c3c([nH]c2c1)[C@H](CO)N(Cc1ccncc1)CC31CN(Cc2ccc(-c3ccccn3)cc2)C1 [Compound 134, (R)-(7′-methoxy-1-(4-(pyridin-2-yl)benzyl)-2′-(pyridin-4-ylmethyl)-1′,2′,3′,9′-tetrahydrospiro [azetidine-3,4′-pyrido[3,4-b]indol]-1′-yl)methanol]",2970
3,"C=CCOC(=O)N1CC2(CCN(C(=O)Oc3ccc([N+](=O)[O-])cc3)CC2)c2c([nH]c3cc(OC)ccc23)[C@@H]1CO [Compound 28, (R)-2′-allyl 1-(4-nitrophenyl) 1′-(hydroxymethyl)-7′-methoxy-3′,9′-dihydrospiro[piperidine-4,4′-pyrido[3,4-b]indole]-1,2′(1′H)-dicarboxylate]",7140
4,"COc1ccc2c3c([nH]c2c1)[C@H](CO)N(C(C)=O)CC31CCN(C(=O)Nc2c(F)cccc2F)CC1 [Compound 51, (R)-2′-acetyl-N-(2,6-difluorophenyl)-1′-(hydroxymethyl)-7′-methoxy-1′,2′,3′,9′-tetrahydrospiro[piperidine-4,4′-pyrido[3,4-b]indole]-1-carboxamide]",177 to 235
5,"COc1cccc(CN2CC3(CCN(Cc4ccccn4)CC3)c3c([nH]c4cc(OC)ccc34)[C@@H]2CO)c1 [Compound 127, (R)-(7′-methoxy-2′-(3-methoxybenzyl)-1-(pyridin-2-ylmethyl)-1′,2′,3′,9′-tetrahydrospiro [pipendine-4,4′-pyrido[3,4-b]indol]-1′-yl) methanol]",1790
6,"COc1ccc2c3c([nH]c2c1)[C@H](CO[Si](C)(C)C(C)(C)C)N(C(C)=O)CC31CCN(CCc2ccccc2F)CC1 [Compound 19, (R)-1-(1′-(((tert-butyldimethylsilyl)oxy)methyl)-1-(2-fluorophenethyl)-7′-methoxyspiro[piperidine-4,4′-pyrido[3,4-b]indol]-2′(1′H,3′H,9′H)-yl)ethanone]",1200
7,"COc1ccc2c3c(n(C)c2c1)[C@H](COC(C)=O)N(C(C)=O)CC31CCN(C(=O)Nc2ccccc2F)CC1 [Compound 17, (R)-(2′-acetyl-1-((2-fluorophenyl)carbamoyl)-7′-methoxy-9′-methyl-1′,2′,3′,9′-tetrahydrospiro[piperidine-4,4′-pyrido[3,4-b]indol]-1′-yl)methylacetate]",834
8,"COc1ccc(COC[C@H]2c3[nH]c4cc(OC)ccc4c3C3(CCN(C(=O)Nc4ccccc4F)CC3)CN2C(C)=O)cc1 [Compound 66, (R)-2′-acetyl-N-(2-fluorophenyl)-7′-methoxy-1′-(((4-methoxybenzyl)oxy)methyl)-1′,2′,3′,9′-tetrahydrospiro[piperidine-4,4′-pyrido[3,4-b]indole]-1-carboxamide]",422
9,"CCCC(=O)N1CCC2(CC1)CN(S(=O)(=O)c1ccc(C)cc1)[C@@H](CO)c1[nH]c3cc(OC)ccc3c12 [Compound 98, (R)-1-(1′-(hydroxymethyl)-7′-methoxy-2′-tosyl-1′,2′,3′,9′-tetrahydrospiro[piperidine-4,4′-pyrido[3,4-b]indol]-1-yl)butan-1-one]",98
10,"COc1ccc(NC(=O)N2CCC3(CC2)CN(C(=O)C2CCC2)[C@H](CO)c2c3c3ccc(OC)cc3n2C)cc1 [Compound 86, (S)-2′-(cyclobutanecarbonyl)-1′-(hydroxymethyl)-7′-methoxy-N-(4-methoxyphenyl)-9′-methyl-1′,2′,3′,9′-tetrahydrospiro [piperidine-4,4′-pyrido[3,4-b]indole]-1-carboxamide]",96
11,"COc1ccc2c3c([nH]c2c1)[C@H](CO)N(C(=O)C(F)(F)F)CC31CCN(C(=O)Nc2ccccc2F)CC1 [Compound 3, (R)-N-(2-fluorophenyl)-1′-(hydroxymethyl)-7′-methoxy-2′-(2,2,2-trifluoroacetyl)-1′,2′,3′,9′-tetrahydrospiro[piperidine-4,4′-pyrido[3,4-b]indole]-1-carboxamide]",1610
12,COc1ccc2c3c([nH]c2c1)[C@H](CO[Si](C)(C)C(C)(C)C)N(C(C)=O)CC31CCN(C(=O)Nc2cccnc2)CC1 [Compound 7],1380
13,"COc1ccc2c3c([nH]c2c1)[C@H](C)NCC31CCN(C(=O)OC(C)(C)C)CC1 [Compound 30, (S)-tert-butyl 7′-methoxy-1′-methyl-1′,2′,3′,9′-tetrahydrospiro[piperidine-4,4′-pyrido[3,4-b]indole]-1-carboxylate]",7440
14,"COc1ccc2c3c([nH]c2c1)[C@H](CO)NCC31CCN(C(=O)Nc2ccc3c(c2)OCO3)CC1 [Compound 102, (R)-N-(benzo[d] [1,3]dioxol-5-yl)-1′-(hydroxymethyl)-7′-methoxy-1′,2′,3′,9′-tetrahydrospiro [piperidine-4,4′-pyrido[3,4-b]indole]-1-carboxamide]",490
15,"COc1ccc2c3c(n(C)c2c1)[C@H](CO)N(C(=O)Nc1ccc(F)cc1)CC31CCN(Cc2cccnc2)CC1 [Compound 117, (R)-N-(4-fluorophenyl)-1′-(hydroxymethyl)-7′-methoxy-9′-methyl-1-(pyridin-3-ylmethyl)-3′,9′-dihydrospiro[piperidine-4,4′-pyrido[3,4-b]indole]-2′(1′H)-carboxamide]",1610
16,"COc1ccc2c3c([nH]c2c1)[C@H](CO)N(C(C)=O)CC31CCN(C(=O)NC2CCCCC2)CC1 [Compound 43, (R)-2′-acetyl-N-cyclohexy1-1′-(hydroxymethyl)-7′-methoxy-1′,2′,3′,9′-tetrahydrospiro[piperidine-4,4′-pyrido[3,4-b]indole]-1-carboxamide]",3370 to 5220
17,"COc1ccc2c3c([nH]c2c1)[C@H](CO)N(C(C)=O)CC31CCN(C(=O)Nc2ccc(F)cc2F)CC1 [Compound 54, (R)-2′-acetyl-N-(2,4-difluorophenyl)-1′-(hydroxymethyl)-7′-methoxy-1′,2′,3′,9′-tetrahydrospiro[piperidine-4,4′-pyrido[3,4-b]indole]-1-carboxamide]",353 to 551
18,"COc1ccc2c3c(n(C)c2c1)[C@@H](CO)N(C(=O)c1ccccc1)CC31CCN(C(=O)c2ccccc2)CC1 [Compound 115, (S)-(1′-(hydroxymethyl)-7′-methoxy-9′-methylspiro [piperidine-4,4′-pyrido[3,4-b]indol]-1,2′(1′ H,3′H,9′H)-diyl)bis(phenylmethanone)]",1040
19,"COc1ccc2c3c([nH]c2c1)[C@H](CO)N(C(C)=O)CC31CCN(C(=O)Nc2ccccc2Cl)CC1 [Compound 1, (R)-2′-acetyl-N-(2-chlorophenyl)-1′-(hydroxymethyl)-7′ -methoxy-1′,2′,3′,9′-tetrahydrospiro [piperidine-4,4′-pyrido [3,4-b]indole]-1-carboxamide]",214 to 345
20,"COc1ccc2c3c([nH]c2c1)[C@H](CO)N(C(C)=O)CC31CCN(C(=O)Nc2ccccc2)CC1 [Compound 35, (R)-2′-acetyl-1′-(hydroxymethyl)-7′-methoxy-N-phenyl-1′,2′,3′,9′-tetrahydrospiro[piperidine-4,4′-pyrido[3,4-b]indole]-1-carboxamide]",175 to 410
21,"COc1ccc2c3c([nH]c2c1)[C@H](CO)N(C(C)=O)CC31CCN(C(=O)Nc2ccccc2C(F)(F)F)CC1 [Compound 57, (R)-2′-acetyl-1′-(hydroxymethyl)-7′-methoxy-N-(2-(trifluoromethyl)phenyl)-1′,2′,3′,9′-tetrahydrospiro[piperidine-4,4′-pyrido[3,4-b]indole]-1-carboxamide]",577 to 1210
22,"COc1ccc2c3c([nH]c2c1)[C@H](CO[Si](C)(C)C(C)(C)C)N(C(=O)C(C)(C)C)CC31CCN(C(=O)Nc2ccccc2F)CC1 [Compound 22, (R)-1′-(((tert-butyldimethylsilyl)oxy)methyl)-N-(2-fluorophenyl)-7′-methoxy-2′-pivaloyl-l′,2′,3′,9′-tetrahydrospiro[piperidine-4,4′-pyrido[3,4-b]indole]-1-carboxamide]",430
23,"COc1ccc2c3c([nH]c2c1)[C@@H](CO)N(Cc1ccccc1)CC31CCN(Cc2cncnc2)CC1 [Compound 94, (S)-(2′-benzyl-7′-methoxy-1-(pyrimidin-5-ylmethyl)-1′,2′,3′,9′-tetrahydrospiro [piperidine-4,4′-pyrido[3,4-b]indol]-1′-yl) methanol]",929

# Same assay, conditions: read-out: EC^50 Dd2
row,SMILES,EC50 [nM]
1,"COc1ccc2c3c([nH]c2c1)[C@H](CO[Si](C)(C)C(C)(C)C)N(C(C)=O)CC31CCN(C(=O)OC(C)(C)C)CC1 [Compound 29, (R)-tert-butyl 2′-acetyl-1′-(((tert-butyldimethylsilyl)oxy)methyl)-7′-methoxy-1′,2′,3′,9′-tetrahydrospiro[piperidine-4,4′-pyrido[3,4-b]indole]-1-carboxylate]",1390
